Test results: ChEMBL document CHEMBL3792286, “A convenient and efficient approach to polyfluorosalicylic acids and their tuberculostatic activity” (Bioorg Med Chem Lett, 2016)
In brackets after ≈: the same amount, converted by molar mass. Activity calls are given as the source filed them. No cut-off for these calls is given here.

Legend:
[1] = test system: Mycobacterium tuberculosis; assay: microbe, parasite or virus in culture; details: 240 h
[2] = test system: Mycobacterium tuberculosis

Structure (SMILES): O=C(O)c1c(O)c(F)c(F)c(F)c1F
- MIC [1]: 0.7 µg/mL (≈ 3.33 µM)

Structure (SMILES): O=C(O)c1cc(F)c(F)cc1O
- MIC [1]: 0.7 µg/mL (≈ 4.02 µM)

Structure (SMILES): NNC(=O)c1ccncc1 [ISONIAZID]
- MIC [2]: inactive

Structure (SMILES): O=C(O)c1ccc(F)c(F)c1O
- MIC [1]: 1.5 µg/mL (≈ 8.62 µM)

Structure (SMILES): CC1COc2c(N3CCN(C)CC3)c(F)cc3c(=O)c(C(=O)O)cn1c23 (stereo not given) [OFLOXACIN]
- MIC [1]: 0.1 µg/mL (≈ 0.277 µM)
